Assay results published in US11691989B2, “Macrocyclic indoles as Mcl-1 inhibitors” (ASCENTAGE PHARMA (SUZHOU) CO., LTD., priority 2018, dated 2023).

Tests used:
[1] = Microsome clearance assay, mouse; type: in vitro ADME; conditions: 0.5 mg/ml protein, 1 mM NADPH, 60 minutes; for microsomal CLint at 5 μM: male, CD-1, mouse, pooled liver microsomes, pH 7.4, mouse liver microsomes, read-out: Mouse Liver Microsome Clint (μL/min/mg protein); for Mouse Liver Microsome Clint (μL/min/mg protein): mouse liver microsomes, 5 μM
Description: (§1) Representative Compounds of the Disclosure were tested in a microsome clearance assay. Pooled liver microsomes (20 mg/ml) from human, male Wister rat, and male CD-1 mouse were obtained from BD Bioscience (Franklin Lakes, N.J. USA). Incubation reaction mixtures contained a final concentration of 0.1M sodium phosphate buffer (pH 7.4), 0.5 mg/ml microsomal protein, 5 μM of test sample and 1 mM NADPH in a total volume of 400 μl. The incubations were done for 60 minutes and 300 μl of the mixtures was transferred to 150 μl of ice cold methanol to terminate reactions. After vortexes for 3 minutes and centrifuged at 4000 rpm at 4° C. for 10 minutes, the clear supernatant was used directly for analysis. The samples were analyzed by Applied Biosystems API 3200 Q TRAP LC/MS/MS system using electrospray ionization mode.

NCI-H929 cells = assay: Cell viability assay (NCI-H929 cells), CCK-8; type: cell-based; conditions: 5% FBS
Description: Cell Viability Assay (NCI-H929 cells)
NCI-H929 cells were obtained from American Type Culture Collection (ATCC). Cells were maintained in the recommended culture medium (RPMI 1640) with 10% FBS and 0.05 mM BME at 37° C. and an atmosphere of 5% CO2.
The effect of Compounds on cell viability was determined using Cell Counting Kit-8 (CCK-8) assay according to the manufacturer's instructions. 95 μL of NCI-H929 cell suspension (20000 cells/well) in culture medium were seeded into 96-well plates and cultured 4 hrs. Each tested compound was serially diluted in DMSO, then 5 μL of the compound or DMSO was diluted in 95 μL medium once more. At last, 5 μL of the compound dilution was added to the corresponding well of the cell plate. After the addition of the tested compound, the cells were incubated at 37° C. in an atmosphere of 5% CO2 for 24 hrs. At the end, 10 μL of CCK-8 solution was added to each well of the plate and incubated for 1-4 hours. The plates were read at 450 nm on the microplate reader (BioTek Synergy 1MF). The readings were normalized to the vehicle cells, and the IC50 was calculated by nonlinear regression analysis using GraphPad Prism 6 software.

OPM-2 cells = assay: Cell viability assay (OPM-2 cells), CCK-8; type: cell-based; conditions: 5% FBS
Description: Cell Viability Assay (OPM-2 cells)
OPM-2 cells were obtained from Deutsche Sammlung von Mikroorganismen and Zellkulturen GmbH (DSMZ). Cells were maintained in the recommended culture medium with 10% FBS at 37° C. and an atmosphere of 5% CO2.
The effect of representative Compounds of the Disclosure on cell viability was determined using Cell Counting Kit-8 (CCK-8) assay (Shanghai Life iLab Bio Technology) according to the manufacturer's instructions. Each tested compound was serially diluted in culture medium, 100 μL of the compound dilution was added into 96-well plates. 100 μL of an OPM-2 cell suspension (20000 cells/well) in culture medium were seeded into the corresponding well of the plate and the cells were incubated at 37° C. in an atmosphere of 5% CO2 for 24 hours. In the next day, 20 μL of CCK-8 solution was added to each well of the plate and incubated for 4 hours.
The plates were read at 450 nm on the microplate spectrophotometer (SpectraMax plus 384, Molecular devices). The readings were normalized to the vehicle cells, and the IC50 was calculated by nonlinear regression analysis using GraphPad Prism 6 software.

[2] = target: Mcl-1 protein (residues 171-323) (Homo sapiens (Human), UniProt Q07820); assay: Inhibition of Mcl-1 by fluorescence polarization (FP) competitive binding assay with FAM-Bid tracer; conditions: 2 nM FAM-Bid, 20 nM Mcl-1, 30 min, read-out: Mc1-1 (FP)
Description: Inhibition of Mcl-1 by fluorescence polarization (FP) assay.
The method used a fluorescein labelled peptide (FAM-Bid) which binds to the Mcl-1 protein leading to an increased anisotropy measured in milli-polarization (mP) values using a plate reader.
A 10-points serial dilution of each compound was prepared in DMSO and 5 μL solution was transferred into flat bottomed, 96-well back plate (final DMSO concentration 5%). 120 μL of Buffer (PBS, 0.01% BGG (Sigma Cat. #SRE0011), 0.01% Triton X-100), containing the Fluorescein labelled peptide (Final concentration 2 nM) and Mcl-1 protein (final concentration 20 nM) was then added. […] 10-points dose response curves were plotted with GraphPad software using Sigmoidal Dose-Response Model and the IC50 values were determined by nonlinear regression fitting of the competition curves.

[3] = Microsome clearance assay, human; type: in vitro ADME; conditions: 0.5 mg/ml protein, 1 mM NADPH, 60 minutes; for microsomal CLint at 5 μM: human, pooled liver microsomes, pH 7.4, human liver microsomes, read-out: Human Liver Microsome Clint (μL/min/mg protein); for Human Liver Microsome Clint (μL/min/mg protein): human liver microsomes, 5 μM
Description: as §1

[4] = Microsome clearance assay, rat; type: in vitro ADME; conditions: 0.5 mg/ml protein, 1 mM NADPH, 60 minutes; for microsomal CLint at 5 μM: male, Wister, rat, pooled liver microsomes, pH 7.4, rat liver microsomes, read-out: Rat Liver Microsome Clint (μL/min/mg protein); for Rat Liver Microsome Clint (μL/min/mg protein): rat liver microsomes, 5 μM
Description: as §1

Sequence of Mcl-1 protein (residues 171-323) (Q07820 171-323): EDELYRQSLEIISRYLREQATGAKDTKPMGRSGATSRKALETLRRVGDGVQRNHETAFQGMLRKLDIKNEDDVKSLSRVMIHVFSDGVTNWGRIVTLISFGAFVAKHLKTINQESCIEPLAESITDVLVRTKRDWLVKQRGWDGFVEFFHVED

SMILES | microsomal CLint at 5 μM [1] | IC50 (NCI-H929 cells; Homo sapiens, NCI-H929, 24 h) | IC50 (OPM-2 cells; Homo sapiens, OPM-2, 24 h) | IC50 [2] | microsomal CLint at 5 μM [3] | microsomal CLint at 5 μM [4] | Mouse Liver Microsome Clint (μL/min/mg protein) [1] | IC50 (NCI-H929 cells; 24 hrs) | IC50 (OPM-2 cells; 24 hours) | Human Liver Microsome Clint (μL/min/mg protein) [3] | Rat Liver Microsome Clint (μL/min/mg protein) [4]
Cc1c(C(=O)O)n2c3ccc(Cl)c(c13)-c1c(nn3c1COCC3)CSCc1cc(n(C)n1)CSc1cc(c3ccccc3c1)OCCC2 [Cpd. No. 1, (Z)-1^5-chloro-1^3,6^1-dimethyl-2^6,2^7-dihydro-1^1H,2^4H,6^1H-10-oxa-4,8-dithia-2(3,2)-pyrazolo[5,1-c][1,4]oxazina-1(4,1)-indola-6(3,5)-pyrazola-9(3,1)-naphthalenacyclotridecaphane-1^2-carboxylic acid] | 49 µL/min/mg | 0.165 µM | 1.54 µM | 0.007 µM | 35.2 µL/min/mg | 34.4 µL/min/mg | – | – | – | – | –
Cc1c(C(=O)O)n2c3ccc(Cl)c(c13)-c1c(nn3c1COCC3)CN(S(=O)(=O)c1ccccc1)Cc1cc(n(C)n1)CSc1cc(c3ccc(F)cc3c1)OCCC2 [Cpd. No. 29, (Z)-1^5-chloro-9^6-fluoro-1^3, 6^1-di methyl-4-(phenylsulfonyl)-26,27-dihydro-1^1H,2^4H,6^1H-10-oxa-8-thia-4-aza-2(3,2)-pyrazolo[5,1-c][1,4]oxazina-1(4,1)-indola-6(3,5)-pyrazola-9(3,1)-naphthalenacyclotridecaphane-1^2-carboxylic acid] | 54.6 µL/min/mg | 0.621 µM | 1.9 µM | 0.035 µM | 21.4 µL/min/mg | 42 µL/min/mg | – | – | – | – | –
Cc1c(C(=O)O)n2c3ccc(Cl)c(c13)-c1c(nn(C)c1C)CN(C(C)C)Cc1cc(n(C)n1)CSc1cc(c3ccc(F)cc3c1)OCCC2 [Cpd. No. 53, (Z)-1^5-chloro-9^6-fluoro-4-isopropyl-1^3,2^1,2^5,6^1-tetramethyl-1^1H,2^1H,6^1H-10-oxa-8-thia-4-aza-1(4,1)-indola-2(4,3),6(3,5)-dipyrazola-9(3,1)-naphthalenacyclotridecaphane-1^2-carboxylic acid] | 59.2 µL/min/mg | 0.222 µM | 1.71 µM | 0.034 µM | 18.6 µL/min/mg | 30 µL/min/mg | – | – | – | – | –
Cc1c(C(=O)O)n2c3ccc(Cl)c(c13)-c1c(nn(C)c1C)CSCc1cc(n(C)n1)CSc1cc(c3ccc(F)cc3c1)OCCC2 (atropisomer, axis not shown) [Cpd. No. 16, (S)-(Z)-1^5-chloro-9^6-fluoro-1^3,2^1,2^5,6^1-tetramethyl-1^111,2^1H,6^1H-10-oxa-4,8-dithia-1(4,1)-indola-2(4,3),6(3,5)-dipyrazola-9(3,1)-naphthalenacyclotridecaphane-1^2-carboxylic acid] | – | – | – | 3.2 µM | – | – | 135 μL/min/mg protein | 2.24 µM | 4.05 µM | 23.4 μL/min/mg protein | 64.6 μL/min/mg protein
Cc1c(C(=O)O)n2c3ccc(Cl)c(c13)-c1c(nn(C)c1C)CN(S(C)(=O)=O)Cc1cc(n(C)n1)CSc1cc(c3ccc(F)cc3c1)OCCC2 (atropisomer, axis not shown) [Cpd. No. 33, (R)-(Z)-1^5-chloro-9^6-fluoro-1^3,2^1,2^5, 6^1-tetramethyl-4-(methylsulfonyl)-1^1H,2^1H, 6′H-10-oxa-8-thia-4-aza-1(4,1)-indola-2(4,3),6(3,5)-dipyrazola-9(3,1)-naphthalenacyclotridecaphane-1^2-carboxylic acid] | – | – | – | 0.005 µM | – | – | 16.0 μL/min/mg protein | 0.107 µM | 0.19 µM | <2.8 μL/min/mg protein | 8.6 μL/min/mg protein
Cc1c(C(=O)O)n2c3ccc(Cl)c(c13)-c1c(nn3c1COCC3)CN(CCNS(C)(=O)=O)Cc1cc(n(C)n1)CSc1cc(c3ccc(F)cc3c1)OCCC2 [Cpd. No. 51, (Z)-1^5-chloro-9^6-fluoro-1^3, 6^1-di methyl-4-(2-(methylsulfonamido)ethyl)-26,27-dihydro-1^1H,2^4H,6^1H-10-oxa-8-thia-4-aza-2(3,2)-pyrazolo[5,1-c][1,4]oxazina-1(4,1)-indola-6(3,5)-pyrazola-9(3,1)-naphthalenacyclotridecaphane-1^2-carb oxylic acid] | 30.6 µL/min/mg | 1.54 µM | 5.82 µM | 0.017 µM | 7.4 µL/min/mg | 15 µL/min/mg | – | – | – | – | –
CCc1c(C(=O)O)n2c3ccc(Cl)c(c13)-c1c(nn(C)c1C)CSCc1cc(n(C)n1)CSc1cc(c3ccccc3c1)OCCC2 [Cpd. No. 8, (Z)-1^5-chloro-1^3-ethyl-2^1,2^5,6^1-trimethyl-1^1H,2^1H,6^111-10-oxa-4,8-dithia-1(4,1)-indola-2(4,3),6(3,5)-dipyrazola-9(3,1)-naphthalenacyclotridecaphane-1^2-carboxylic acid] | 325 µL/min/mg | 0.07 µM | 0.268 µM | 0.021 µM | 86.8 µL/min/mg | 299 µL/min/mg | – | – | – | – | –
Cc1c2c(nn1C)CSCc1cc(n(C)n1)CSc1cc(c3ccc(F)cc3c1)OCCCn1c(C(=O)O)c(CN(C)S(=O)(=O)C(F)(F)F)c3c-2c(Cl)ccc31 [Cpd. No. 23, (Z)-1^5-chloro-9^6-fluoro-2^1,2^5,6^1-trimethyl-1^3-(((1,1,1-trifluoro-N-methylmethyl)sulfonamido)methyl)-1^1H,2^1H,6^1H-10-oxa-4,8-dithia-1(4,1)-indola-2(4,3),6(3,5)-dipyrazola-9(3,1)-naphthalenacyclotridecaphane-1^2-carboxylic acid] | 52.4 µL/min/mg | 1.07 µM | 1.87 µM | 0.016 µM | 48.2 µL/min/mg | 30.4 µL/min/mg | – | – | – | – | –
Cc1c(C(=O)O)n2c3ccc(Cl)c(c13)-c1c(nn(C)c1C)CN(S(=O)(=O)C(F)(F)F)Cc1cc(n(C)n1)CSc1cc(c3ccc(F)cc3c1)OCCC2 [Cpd. No. 35, (Z)-1^5-chloro-9^6-fluoro-1^3,2^1,2^5,6^1-tetramethyl-4-((trifluoromethyl)sulfonyl)-1^1H,2^1H,6^1H-10-oxa-8-thia-4-aza-1(4,1)-indola-2(4,3),6(3,5)-dipyrazola-9(3,1)-naphthalenacyclotridecaphane-1^2-carboxylic acid] | 156 µL/min/mg | 0.025 µM | 0.057 µM | 0.015 µM | 53.2 µL/min/mg | 42 µL/min/mg | – | – | – | – | –
